How the values were obtained:
[1] = test system: PPE-induced COPD model mice; assay: Porcine pancreatic elastase (PPE)-induced emphysema model, post-treatment; assay type: in vivo, C57BL/6J mice; settings: started 3 days after PPE, sacrifice day 21
Protocol: Porcine Pancreatic Elastase (PPE)-induced emphysema model was used to measure the post-treatment effects of ATPB in COPD model mice. C57BL/6J mice were intratracheally injected with PPE (0.8 U per mouse) in PBS via a micropipette. The mice were randomly divided into […]: (A) emphysema group, which was exposed to intratracheal PPE; (B) emphysema+ATPB (5 mg/kg ATPB, PO, bid); (C) emphysema +ATPB (10 mg/kg ATPB, PO, bid); (D) emphysema +roflumilast (10 mg/kg, PO, qd); and (E) emphysema +prednisolone (1 mg/kg, PO, qd). All treatments were started 3 days after the PPE injection. Mice were sacrificed 21 days after the PPE injection.
(§1) Rats and mice were sacrificed, and BALF was obtained by cannulating the trachea and lavage three times with 2 mL DPBS. BALF cells were centrifuged at 1000×g for 10 min at 4° C. The supernatants were collected and stored at −80° C. to measure inflammatory factors. The pelleted BALF cells were resuspended in 1 mL PBS and quantified using a hematology analyzer (Mindray Medical International Ltd., Shenzhen, China).

[2] = test system: smoking-induced COPD rats; assay: Rat model of COPD by smoke exposure and intratracheal LPS; assay type: in vivo; settings: for IL-6 gene expression in the lungs (RT-PCR) / MCP-1 gene expression in the lungs (RT-PCR) / TNF-α gene expression in the lungs (RT-PCR): FIG. 7, P<0.01 or P<0.05
Protocol: As described previously, the rat model of COPD was established by smoke exposure and intratracheal instillation of lipopolysaccharide (LPS). Experimental rats, including the COPD and drug-treated groups (10 mg/kg ATPB), underwent whole-body exposure to tobacco smoke from 10 cigarettes in a tobacco smoke chamber (90×40×30 cm, made of Plexiglas) twice a day with 2-hour smoke-free intervals, every day for 12 weeks.
Animals from the two smoke-exposed groups were administered 180 μg/180 μL of LPS solution intratracheally on two occasions, on the first and 14th days of tobacco smoke exposure. Additionally, rats in the ATPB group were orally administered ATPB (10 mg/kg ATPB). All rats were sacrificed on the 91st day.
as §1
Total RNA from the lung tissue was extracted using TRIzol reagent (Invitrogen) according to the manufacturer's instructions. cDNA was synthesized using a cDNA Synthesis Kit (Life Technologies). SYBR Green Master Mix (Thermo Fisher) was used for PCR amplification on a StepOnePlus Real-Time PCR System (Applied Biosystems, Foster City, Calif., USA).
The lungs of the rats were removed at week 12 and fixed in 10% neutral buffered formalin for histopathological analysis. Formalin-fixed tissues were embedded in paraffin, sectioned at […], and stained with hematoxylin and eosin (HE) and Alcian blue-periodic acid-Schiff (AB-PAS) to reveal histopathological lesions.

[3] = test system: OVA-challenged mice; assay: OVA-induced mouse asthma model; assay type: in vivo, Balb/C mice
Protocol: Seven-week-old female Balb/C mice were sensitized by intraperitoneal injection (IP, 200 μL/mouse) of 100 μg OVA complexed with aluminum potassium sulfate on days 0, 7, and 14. On days 26, 27, and 28, mice were challenged with 5% aerosolized OVA in 48 mL sterile phosphate-buffered saline (PBS). The control group received sterile PBS with aluminum potassium sulfate via the IP route on days 0, 7, 14, and 48 mL of aerosolized sterile PBS on days 26, 27, and 28. Mice in the ATPB group were orally administered 10 mg/kg bid ATPB on days […], 27, 28, and 29.
as §1

[4] = ATPB 10 mg/kg bid oral, vs OVA-challenged mice, FIG. 2
[5] = ATPB 10 mg/kg bid oral, vs vehicle group, FIG. 3
[6] = ATPB 10 mg/kg, vs OVA-challenged mice, FIG. 4
[7] = ATPB 10 mg/kg, vs COPD rats, FIG. 6

With `C[C@]12C=CC(=O)C=C1CC[C@@H]1[C@@H]2[C@@H](O)C[C@@]2(C)[C@H]1CC[C@]2(O)C(=O)CO` [prednisolone, reference compound] the “number of WBC in BALF” value ([1]; prednisolone 1 mg/kg PO qd, FIG. 8) was “Neither roflumilast nor prednisolone reduced the WBC count”, the “IL-6 gene expression in the lungs (RT-PCR)” value ([2]; vs COPD group) was “decreased” and the “MCP-1 gene expression in the lungs (RT-PCR)” value ([2]; vs COPD group) was “decreased”. The “TNF-α gene expression in the lungs (RT-PCR)” value ([2]; vs COPD group) was “decreased”.

With `O=C(Nc1c(Cl)cncc1Cl)c1ccc(OC(F)F)c(OCC2CC2)c1` [roflumilast] the “number of WBC in BALF” value ([1]; roflumilast 10 mg/kg PO qd, FIG. 8) was “Neither roflumilast nor prednisolone reduced the WBC count”.

In the case of `CC(=O)Oc1ccc(NCCc2ccc(C(F)(F)F)cc2)cc1C(=O)O` [ATPB, 2-acetoxy-5-[2-(4-trifluoromethyl-phenyl)-ethylamino]-benzoic acid], the “number of WBC in BALF” value ([1]; 10 mg/kg ATPB PO bid, vs vehicle, FIG. 8, P<0.05) is reported as “significantly reduced”, the “IL-4 production in BALF (ELISA)” value [3, 4] is reported as “significantly downregulated” and the “IL-5 production in BALF (ELISA)” value [3, 4] is reported as “significantly downregulated”. The “production of IgE in the serum (ELISA)” value ([3]; ATPB 10 mg/kg bid oral, vs OVA-challenged mice, serum 24 h after last OVA challenge) was “significantly reduced”, the “EO (eosinophil) cell count in BALF” value [3, 5] was “markedly reduced” and the “LY (lymphocyte) cell count in BALF” value [3, 5] was “markedly reduced”. For the same compound, the “MO (monocyte) cell count in BALF” value [3, 5] was “markedly reduced”, the “WBC cell count in BALF” value [3, 5] was “markedly reduced” and the “cell infiltration into peribranchial lung lesions (H&E staining)” value [3, 6] was “notably downregulated”. For the same compound, the “mucus hypersecretion in the bronchial airways (PAS staining)” value [3, 6] was “attenuated”, the “OVA-induced inflammatory cell counts in BALF” value ([3]; after last OVA challenge, FIG. 3 legend) was “significantly reduced” and the OVA-induced eotaxin production ([3]; mouse asthma model) was “attenuated”. For the same compound, the “OVA-specific IgE levels in serum (ELISA)” value ([3]; serum 24 h after last OVA aerosol challenge, FIG. 1) was “significantly lowered”, the “number of WBCs in BALF” value ([2]; ATPB 10 mg/kg oral, LPS and chronic smoking, 12 weeks, vs vehicle group, FIG. 5) was “markedly reduced” and the “alveolar sacs and alveolar spaces enlargement (H&E lung histopathology)” value ([2]; ATPB 10 mg/kg oral, vs COPD group, FIG. 6) was “relieved”. For the same compound, the “goblet cell proliferation (PAS+ cells)” value [2, 7] was “decreased”, the “mucous secretion (PAS staining)” value [2, 7] was “reduced levels” and the “IL-6 gene expression in the lungs (RT-PCR)” value ([2]; vs COPD group) was “decreased”. The “MCP-1 gene expression in the lungs (RT-PCR)” value ([2]; vs COPD group) was “decreased” and the “TNF-α gene expression in the lungs (RT-PCR)” value ([2]; vs COPD group) was “decreased”.
